From ChEMBL document CHEMBL4393653, “Applications of Deuterium in Medicinal Chemistry” (J Med Chem, 2019)

How the values were obtained:
[1] = Cmax in rat at 10 mg/kg, po; format: ADME, organism-based; parameters: dose 10 mg/kg, route oral; details: in vivo
[2] = Half life in rat at 10 mg/kg, po; format: ADME, organism-based; details: in vivo
[3] = Half life in human liver microsomes; format: ADME, Microsome

Row | Structure (SMILES) | Cmax [1] | half-life [2] | half-life [3]
1 | [2H]c1c([2H])c([2H])c(C2=C(c3ccc(S(C)(=O)=O)cc3)COC2=O)c([2H])c1[2H] | 4180 ng/mL | 4.29 h | 
2 | [2H]C([2H])([2H])c1nnc(C(C)C)n1[C@@H]1C[C@H]2CC[C@@H](C1)N2CC[C@H](NC(=O)C1CCC(F)(F)CC1)c1ccccc1 |  |  | 0.758 h
3 | [2H]C([2H])([2H])c1nnc(C(C)C)n1[C@@H]1C[C@H]2CC[C@@H](C1)N2C([2H])([2H])C[C@H](NC(=O)C1CCC(F)(F)CC1)c1ccccc1 |  |  | 2.42 h
4 | Cc1nnc(C(C)C)n1[C@@H]1C[C@H]2CC[C@@H](C1)N2CC[C@H](NC(=O)C1CCC(F)(F)CC1)c1ccccc1 [MARAVIROC] |  |  | 1.62 h
5 | CS(=O)(=O)c1ccc(C2=C(c3ccccc3)C(=O)OC2)cc1 [ROFECOXIB] | 2420 ng/mL | 4.18 h | 
